Holding throughout (type): binding
Test [1] has as its system Antibody A specific for cortisol (clone 16DC/17.7, IgG1κ). In words: LOCI competitive cortisol immunoassay, cross-reactivity screening with Biotinylated Antibody A Reagent. Particulars: 100% A Biotinylated Antibody; steroid-stripped serum with cortisol (5 ng/dL). The protocol:
(§1) The antibodies were subjected to analytical size exclusion chromatography prior to any manipulations.
(§2) NHS-PEO4-Biotin was dissolved fresh at 10 mg/mL in Antibody Dialysis Buffer. […] The mixture was rocked at 25° C. for exactly 3 hours. A 200 mM solution of glycine was prepared by dissolving 750 mg glycine in Antibody Dialysis Buffer to a total volume of 50 mL. At the end of the 3-hour biotinylation reaction, 1.52 mL of the 200 mM glycine solution was added to the reaction mixture. The quenched reaction mixture was rocked an additional 60 minutes at 25° C.
(§3) The biotinylated antibody was then purified using preparatory HPLC using Antibody Dialysis Buffer as the mobile phase. […] This reagent was designated as the Biotinylated Antibody Reagent.
(§4) The assay used for screening purposes was conducted on the DIMENSION® VISTA® instrument (system) (Siemens Healthcare Diagnostics Inc., Newark Del.). Initially, 20 μL Biotinylated Antibody Reagent with 15 μL system water was added to the vessel. After 22 seconds, 15 μL sample with 15 μL system water were added to the vessel. After almost 4 minutes, 20 μL Chemibead Reagent with 15 μL system water were added to the vessel. Approximately 7 minutes later, 20 μL Sensibead Reagent with 135 μL system water was added to the vessel. The LOCI® read was taken after approximately 5 minutes. The assay from the first reagent addition to the final read took approximately 16 minutes. The contents of the vessel when the final read is taken were as follows: 2 ng/mL Biotinylated Antibody Reagent, 4 μg/mL Chemibead Reagent, 56 μg/mL Sensibead Reagent, and […] sample. The assay is a competitive format, which means that the greater the concentration of analyte in the sample, the smaller is the signal generation. This is because a detectable complex is formed by the Biotinylated Antibody Reagent, Chemibead Reagent, and Sensibead Reagent in the absence of analyte. The presence of analyte decreases the proportion of Biotinylated Antibody Reagent that is free to form detectable complexes.
(§5) Initial testing used Biotinylated Antibody A Reagent with the other reagents and the methodology described above to analyze the steroid-stripped serum with cortisol. The panel of 34 cross-reactants were individually added to the steroid-stripped serum with a defined concentration of cortisol (5 ng/dL) and assayed. Cross-reactivity data were calculated as follows:
(§6) [formula] The same testing was performed using Biotinylated Antibody L Reagent. The compilation of the percent cross-reactivities for the 34 compounds is referred to as the cross-reactivity profile. The apparent cortisol concentration is the cortisol value obtained when testing a sample containing cortisol and the interfering substance by the above test method that also detects the interfering substance to some degree.

Test [2] has as its system mixture of Biotinylated Antibody A Reagent and Biotinylated Antibody L Reagent. In words: LOCI competitive cortisol immunoassay, cross-reactivity with mixtures of Biotinylated Antibody A and L Reagents. The settings on record: for percent cross reactivity: steroid-stripped serum with cortisol. The procedure:
as §4, §5, §6
A further study was performed by mixing Biotinylated Antibody A Reagent with Biotinylated Antibody L Reagent in a 50:50 mixture; 80% Biotinylated Antibody A Reagent: 20% Biotinylated Antibody L Reagent; 75% Biotinylated Antibody A Reagent: 25% Biotinylated Antibody L Reagent; and 70% Biotinylated Antibody A Reagent: 30% Biotinylated Antibody L Reagent. […] These reagents were used to test cross-reactivity in stripped serum with cortisol.

The test system of test [3] is Antibody L specific for cortisol (clone XM210, IgG2a). In words: LOCI competitive cortisol immunoassay, cross-reactivity screening with Biotinylated Antibody L Reagent. The settings on record: 100% L Biotinylated Antibody; steroid-stripped serum with cortisol (5 ng/dL). The procedure:
as §1, §2, §3, §4, §5, §6

The mark [4] stands for this setting: 70% A 30% L Biotinylated Antibody.
[5] abbreviates: 75% A 25% L Biotinylated Antibody.
[6] abbreviates: 80% A 20% L Biotinylated Antibody.

`C[C@]12CCC(=O)C[C@H]1CC[C@@H]1[C@@H]2[C@@H](O)C[C@@]2(C)[C@H]1CC[C@]2(O)C(=O)CO` [5β-dihydrocortisol]: the percent cross reactivity in test [1] was found to be 0.4%; in test [2] (setting [4]), 1.0%; in test [2] (setting [5]) it was 0.9%; in test [2] (setting [6]), 0.8%; in test [3], 1.3%.
As to `C[C@H]1C[C@@H]2[C@H]([C@@H](O)C[C@@]3(C)[C@H]2CC[C@]3(O)C(=O)CO)[C@@]2(C)C=CC(=O)C=C12` [6-methyl-prednisolone], the percent cross reactivity in test [1] worked out at 6.4%; in test [2] (setting [4]) it was 8.3%; in test [2] (setting [5]) it was 7.5%; in test [2] (setting [6]), 7.2%; in test [3], 10.7%.
For the molecule `C[C@]12CCC(=O)C=C1[C@H](O)C[C@@H]1[C@@H]2[C@@H](O)C[C@@]2(C)[C@H]1CC[C@]2(O)C(=O)CO` [6β-hydroxycortisol], the percent cross reactivity in test [1] worked out at 2.7%; in test [2] (setting [4]), 6.9%; in test [2] (setting [5]), 6.2%; in test [2] (setting [6]), 5.5%; in test [3] it was 100.0%.
The corresponding values for `C[C@]12CC[C@H]3[C@@H](CCC4=CC(=O)CC[C@@]43C)[C@@H]1CC[C@@H]2C(=O)CO` [11-deoxycorticosterone] are 0.7%, 0.8%, 0.8%, 0.8% and 0.8%.
The corresponding values for `C[C@]12CCC(=O)C=C1CC[C@@H]1[C@@H]2CC[C@@]2(C)[C@H]1CC[C@]2(O)C(=O)CO` [11-deoxycortisol] are 39.8%, 3.0%, 3.2%, 3.7% and 1.7%.
In the case of `C[C@]12CC[C@@H](O)C[C@H]1CC[C@@H]1[C@@H]2C(=O)C[C@]2(C)C(=O)CC[C@@H]12` [11-ketoetiocholanolone], the percent cross reactivity in test [1], in test [2] (setting [4]), in test [2] (setting [5]), in test [2] (setting [6]) and in test [3] was 0.0% throughout.
Turning to `CC(=O)[C@H]1CC[C@H]2[C@@H]3CCC4=CC(=O)CC[C@]4(C)[C@H]3[C@@H](O)C[C@]12C` [11β-hydroxyprogesterone], the percent cross reactivity in test [1] worked out at 0.6%; in test [2] (setting [4]), 0.7%; in test [2] (setting [5]), 0.7%; in test [2] (setting [6]), 0.6%; in test [3], 0.7%.
As for `CC(=O)[C@@]1(O)CC[C@H]2[C@@H]3CCC4=CC(=O)CC[C@]4(C)[C@H]3CC[C@@]21C` [17α-hydroxyprogesterone], the percent cross reactivity in test [1] is reported as 24.1%; in test [2] (setting [4]), 1.6%; in test [2] (setting [5]), 1.8%; in test [2] (setting [6]), 2.1%; in test [3] it was 0.9%.
As for `CC(=O)[C@@]1(O)CC[C@H]2[C@@H]3CC=C4C[C@@H](O)CC[C@]4(C)[C@H]3CC[C@@]21C` [17β-hydroxypregnenolone], the percent cross reactivity in test [1], in test [2] (setting [4]), in test [2] (setting [5]), in test [2] (setting [6]) and in test [3] was 0.1% in each case.
For `C[C@]12CCC(=O)C=C1CC[C@@H]1[C@@H]2[C@@H](O)C[C@@]2(C)[C@H]1CC[C@]2(O)[C@@H](O)CO` [20α-dihydrocortisol], the percent cross reactivity is on record as 0.4% in test [1]; 0.7% in test [2] (setting [4]); 0.6% in test [2] (setting [5]); 0.6% in test [2] (setting [6]); 0.9% in test [3].
Consider `C[C@]12CCC(=O)C=C1CC[C@@H]1[C@@H]2C(=O)C[C@@]2(C)[C@H]1CC[C@]2(O)[C@@H](O)CO` [20α-dihydrocortisone], for which the percent cross reactivity is given as 1.5% in test [1]; 0.4% in test [2] (setting [4]); 0.5% in test [2] (setting [5]); 0.5% in test [2] (setting [6]); 0.2% in test [3].
With `C[C@]12CCC(=O)C=C1CC[C@@H]1[C@@H]2[C@@H](O)C[C@@]2(C)[C@H]1CC[C@]2(O)[C@H](O)CO` [20β-dihydrocortisol], the percent cross reactivity in test [1] came out at 0.6%; in test [2] (setting [4]), 1.6%; in test [2] (setting [5]), 1.5%; in test [2] (setting [6]), 1.3%; in test [3] it was 2.1%.
The corresponding values for `C[C@]12CCC(=O)C=C1CC[C@@H]1[C@@H]2C(=O)C[C@@]2(C)[C@H]1CC[C@]2(O)[C@H](O)CO` [20β-dihydrocortisone] are 0.1%, 0.1%, 0.1%, 0.1% and 0.1%.
As to `CC(=O)[C@@]1(O)CC[C@H]2[C@@H]3CCC4=CC(=O)CC[C@]4(C)[C@H]3[C@@H](O)C[C@@]21C` [21-deoxycortisol], the percent cross reactivity in test [1] is recorded as 8.3%; in test [2] (setting [4]), 7.2%; in test [2] (setting [5]), 6.9%; in test [2] (setting [6]) it was 6.9%; in test [3] it was 6.4%.
With `CC(=O)[C@@]1(O)CC[C@H]2[C@@H]3CCC4=CC(=O)CC[C@]4(C)[C@H]3C(=O)C[C@@]21C` [21-deoxycortisone], the percent cross reactivity is recorded as 36.4% in test [1]; 2.5% in test [2] (setting [4]); 2.7% in test [2] (setting [5]); 3.1% in test [2] (setting [6]); 1.4% in test [3].
For the molecule `C[C@]12CCC(=O)C=C1CC[C@@H]1[C@@H]2[C@@H](O)C[C@]2(C=O)[C@@H](C(=O)CO)CC[C@@H]12` [Aldosterone], the percent cross reactivity in test [1], in test [2] (setting [4]), in test [2] (setting [5]), in test [2] (setting [6]) and in test [3] was 0.3% each time.
Take `C[C@]12CC[C@@H](O)C[C@@H]1CC[C@@H]1[C@@H]2[C@@H](O)C[C@@]2(C)[C@H]1CC[C@]2(O)C(=O)CO` [allotetrahydrocortisol]: the percent cross reactivity in test [1] was 4.7%; in test [2] (setting [4]), 7.1%; in test [2] (setting [5]), 6.5%; in test [2] (setting [6]), 6.0%; in test [3] it was 8.1%.
Turning to `C[C@]12C[C@H](O)[C@H]3[C@@H](CCC4=CC(=O)CC[C@@]43C)[C@@H]1CC[C@@H]2C(=O)CO` [corticosterone], the percent cross reactivity in test [1] was 0.6%; in test [2] (setting [4]), 1.8%; in test [2] (setting [5]), 1.5%; in test [2] (setting [6]), 1.4%; in test [3], 3.0%.
Consider `C[C@]12CCC(=O)C=C1CC[C@@H]1[C@@H]2C(=O)C[C@@]2(C)[C@H]1CC[C@]2(O)C(=O)CO` [cortisone], for which the percent cross reactivity was determined as 41.7% in test [1]; 2.5% in test [2] (setting [4]); 2.8% in test [2] (setting [5]); 3.1% in test [2] (setting [6]); 1.4% in test [3]. The “decrease of percent cross-reactivity” value in test [2] (incorporation of 25% Biotinylated Antibody Reagent L versus 100% A) was “greater than 90%”.
